Laboratory results: patent US20110269825A1, “Modified Thromboxane A2 Receptor Promoter Sequence” (priority 2008, published 2011)

B1: NAB1: Egr1 co-repressor NGFI-A-binding protein 1, over-expressed from pCMV5-NAB1 (protein)
chain: MAAALPRTLGELQLYRILQKANLLSYFDAFIQQGGDDVQQLCEAGEEEFLEIMALVGMASKPLHVRRLQKALRDWVTNPGLFNQPLTSLPVSSIPIYKLPEGSPTWLGISCSSYERSSNAREPHLKIPKCAATTCVQSLGQGKSDVVGSLALQSVGESRLWQGHHATESEHSLSPADLGSPASPKESSEALDAAAALSVAECVERMAPTLPKSDLNEVKELLKTNKKLAKMIGHIFEMNDDDPHKEEEIRKYSAIYGRFDSKRKDGKHLTLHELTVNEAAAQLCVKDNALLTRRDELFALARQISREVTYKYTYRTTKSKCGERDELSPKRIKVEDGFPDFQDSVQTLFQQARAKSEELAALSSQQPEKVMAKQMEFLCNQAGYERLQHAERRLSAGLYRQSSEEHSPNGLTSDNSDGQGERPLNLRMPNLQNRQPHHFVVDGELSRLYPSEAKSHSSESLGILKDYPHSAFTLEKKVIKTEPEDSR

Tests used:
Type in all cases: cell-based, human
Egr1 = assay: Immunoblot analysis of Egr1 expression in HEL cells; details: 100 nM PMA plus 10 μM PD98059, 16 h
Protocol: The expression of WT1, Sp1, Egr1, NF-E2, GATA-1 and Ets-1 proteins in HEL cells was confirmed by western blot analysis. Briefly, whole cell protein was resolved by SDS-PAGE (10% acrylamide gels) and transferred to polyvinylidene difluoride (PVDF) membrane according to standard methodology. […] For PMA studies, HEL cells were pre-incubated for the indicated amount of time with 100 nM PMA, with 10 μM PD98059, with 100 nM PMA plus 10 μM PD98059 or, as a control, with vehicle [0.1% (v/v) DMSO]. Whole cell protein (60 μg per lane) was resolved by SDS-PAGE (10% acrylamide gels) and transferred to polyvinylidene difluoride (PVDF) membrane according to standard methodology.

[1] = tested on: Prm1-directed luciferase expression; assay: Effect of PMA, PD98059 or Vitamin D3 on Prm1-directed luciferase expression in HEL cells; details: 100 nM PMA plus 10 μM PD98059, 16 h
Protocol: HEL and EA.hy 926 cells were co-transfected with the various pGL3Basic-recombinant plasmids (2 mg), encoding firefly luciferase, along with pRL-TK (200 ng), encoding renilla luciferase, using DMRIE-C® transfection reagent. HEK293, WI-38, and 1° hAoSMCs were co-transfected with the pGL3Basic-recombinant plasmids (2 mg), along with pRL-TK (200 ng), using Effectene transfection reagent. In all cases, cells co-transfected with pRL-TK (200 ng) in the presence of either the pGL3Control vector (firefly luciferase gene under the control of the SV40 promoter; 2 mg) or the promoter-less pGL3Basic empty vector (2 mg), which served as positive and negative controls, respectively. […] Relative firefly to renilla luciferase activity (arbitrary units) was calculated as a ratio and was expressed in relative luciferase units (RLU). To investigate the effect of over-expression of exon 5 (+ or −) or KTS (+ or −) isoforms of WT1 on Prm1-directed gene expression, HEL cells were co-transfected with either pGL3b:Prm1 or pGL3b:Prm1D (1.5 μg) plus 200 ng of pRL-TK along with either pcDNA3:WT1 (+/+), pcDNA3:WT1 (+/−), pcDNA3:WT1 (−/+), pcDNA3:WT1 (−/−) (0.5 μg), or as a control, pcDNA3 (0.5 μg). […] The plasmid pCMV5-NAB1, containing the entire coding sequence for NAB1, was generously donated by Dr. Gerald Thiel, University of Saarland Medical Center, Homburg, Germany, and has been described previously (Thiel et al., 2000). To investigate the effect of over-expression of NAB1 on the PMA-mediated induction of Prm1-directed gene expression, HEL cells were transiently co-transfected with pGL3b:Prm1 (2 μg) plus pRL-TK (200 ng) along with either pCMV5 (control) or pCMV:NAB1 (1 μg).

[2] = tested on: Prm1-directed luciferase expression; assay: Effect of over-expression of WT1 isoforms, Egr1 or NAB1 on Prm1-directed luciferase expression in HEL cells
Protocol: HEL and EA.hy 926 cells were co-transfected with the various pGL3Basic-recombinant plasmids (2 mg), encoding firefly luciferase, along with pRL-TK (200 ng), encoding renilla luciferase, using DMRIE-C® transfection reagent. HEK293, WI-38, and 1° hAoSMCs were co-transfected with the pGL3Basic-recombinant plasmids (2 mg), along with pRL-TK (200 ng), using Effectene transfection reagent. In all cases, cells co-transfected with pRL-TK (200 ng) in the presence of either the pGL3Control vector (firefly luciferase gene under the control of the SV40 promoter; 2 mg) or the promoter-less pGL3Basic empty vector (2 mg), which served as positive and negative controls, respectively. Firefly and renilla luciferase expression was assayed some 48 h post-transfection using the Dual-Luciferase Reporter Assay System™, as described (Coyle et al., 2005). Relative firefly to renilla luciferase activity (arbitrary units) was calculated as a ratio and was expressed in relative luciferase units (RLU). To investigate the effect of over-expression of exon 5 (+ or −) or KTS (+ or −) isoforms of WT1 on Prm1-directed gene expression, HEL cells were co-transfected with either pGL3b:Prm1 or pGL3b:Prm1D (1.5 μg) plus 200 ng of pRL-TK along with either pcDNA3:WT1 (+/+), pcDNA3:WT1 (+/−), pcDNA3:WT1 (−/+), pcDNA3:WT1 (−/−) (0.5 μg), or as a control, pcDNA3 (0.5 μg). […]

Row | Molecule | Effect on PMA-induction of Egr1 protein expression (Egr1) | Effect on luciferase expression directed by the Prm1K sub-fragment [1] | PMA-induction of Prm1-directed luciferase expression in the presence of PD98059 ([1]; 4.3-fold with PMA alone) [fold] | Effect of NAB1 over-expression on PMA-induction of Prm1 activity ([2]; HEL, PMA 100 nM 16 h) | Effect of NAB1 over-expression on Prm1-directed luciferase activity ([2]; vehicle-treated HEL cells)
1 | COc1cccc(-c2cc(=O)c3ccccc3o2)c1N [PD98059, 2-(2-amino-3-methoxyphenyl)-4H-1-benzopyran-4-one] | completely abolished the PMA-induction of Egr1 protein expression | neither PMA alone (p=0.4721) nor PMA plus PD98059 (p=0.2693) had any significant effect | 2.3 |  | 
2 | B1 |  |  |  | significantly reduced the PMA-induction of Prm1 activity | did not significantly affect Prm1-directed luciferase activity
